Non-standard residues stand in square brackets, D forms with d. Residues, ends and D or L forms follow the SMILES beside them. *: point of attachment. Butyryl = CCCC(=O)*
How the values were obtained:
MC-1 receptor = biological target: T1, MC-1 receptor (Homo sapiens, UniProt Q01726); test: Agonist assay: cAMP response in 293 cells transfected with MC-1 receptor (Biotrak-cAMP SPA); format: cell-based; details: MC1-R versus MC4-R agonist activity, transfected 293 cells
T1 construct: expressed in transfected cells; host or cells: 293 cells
Procedure: Culture medium was removed from confluent 96 well culture plates and replaced with 200 μl of above dilutions into the appropriate wells . The plates were incubated for 1 hr at RT. The media was removed, and the plates were washed 1× with 200^μl well of PBS. CAMP was extracted by the addition of 60 μl 70% ethanol (stored in the refrigerator). […]
cAMP Assay: The extracted samples and all reagents included in the kit were brought to room temperature. […] [125I]cAMP binding to the SPA beads was determined by counting each plate for 2 minutes on a Packard TopCount™. […]

MC-4 receptor = biological target: T2, MC-4 receptor (Homo sapiens, UniProt P32245); test: Agonist assay: cAMP response in 293 cells transfected with MC-4 receptor (Biotrak-cAMP SPA); format: cell-based; details: cAMP increase, read-out: EC50 for MC4-R agonist activity
T2 construct: expressed in transfected cells; host or cells: 293 cells (293MC4, obtained from Dr. Wei Gu, Millenium)
Procedure: Description: 293 cells transfected with either the MC-4 receptor or MC-1 receptor were grown in 96 well plates. The cells were stimulated with either 100 nM NDP-αMSH or screening compounds. Cyclic AMP was extracted from the cells and concentrations were determined using a Biotrak-cAMP SPA assay. Agonists were identified as those compounds causing an increase in cAMP. […] Wei Gu, Millenium) were cultured in 75cm^2flasks in D-MEM supplemented with 10% FCS and 500 μg/ml G418. Cells were trypsinized and split 1:3 into 96 well flat-bottom tissue culture treated plates. Cells were stimulated at confluence (day 2-4). cAMP Response: Compounds serially diluted in 100% DMSO were further diluted 1:200 (2.5 μl compound dilution+500 μl media) in D-MEM containing 10% FBS and 0.1 mM IBMX. For unstimulated cells, 2.5 μl of DMSO was added to 500 μl of media. For NDP-αMSH stimulated cells, 2.5 μl of 20 μM NDP-αMSH in 100% DMSO was added to 500 μl of media (final conc. 100 nM). Final concentration of DMSO in all wells was 0.5%. Note: Each sample was run in duplicate on separate plates Culture medium was removed from confluent 96 well culture plates and replaced with 200 μl of above dilutions into the appropriate wells . The plates were incubated for 1 hr at RT. […] [125I]cAMP binding to the SPA beads was determined by counting each plate for 2 minutes on a Packard TopCount™. […]

T2 sequence (P32245 whole entry): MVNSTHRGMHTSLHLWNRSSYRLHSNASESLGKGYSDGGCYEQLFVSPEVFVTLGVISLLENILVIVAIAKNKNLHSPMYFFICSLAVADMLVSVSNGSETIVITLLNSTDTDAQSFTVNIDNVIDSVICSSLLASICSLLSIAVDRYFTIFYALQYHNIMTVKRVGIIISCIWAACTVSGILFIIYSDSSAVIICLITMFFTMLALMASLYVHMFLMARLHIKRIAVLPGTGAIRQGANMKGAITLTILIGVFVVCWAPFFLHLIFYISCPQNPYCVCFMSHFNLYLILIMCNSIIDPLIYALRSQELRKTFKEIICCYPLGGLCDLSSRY
T1 sequence (Q01726 whole entry): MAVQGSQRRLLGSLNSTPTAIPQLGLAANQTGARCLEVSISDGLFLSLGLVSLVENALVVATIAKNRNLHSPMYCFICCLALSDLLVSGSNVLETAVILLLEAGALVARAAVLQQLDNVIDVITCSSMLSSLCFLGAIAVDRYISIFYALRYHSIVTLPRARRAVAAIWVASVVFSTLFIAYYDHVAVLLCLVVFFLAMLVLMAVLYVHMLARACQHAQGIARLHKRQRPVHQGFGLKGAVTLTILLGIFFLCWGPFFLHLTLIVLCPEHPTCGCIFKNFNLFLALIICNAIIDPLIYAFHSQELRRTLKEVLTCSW

| SMILES | MC1-R agonist activity compared with MC4-R agonist activity (MC-1 receptor) | EC50 (MC-4 receptor) [nM] |
| --- | --- | --- |
| CCCC(=O)N[C@@H](Cc1c[nH]cn1)C(=O)N[C@H](Cc1ccccc1)C(=O)N[C@@H](CCCNC(=N)N)C(=O)N[C@@H](Cc1c[nH]c2ccccc12)C(=O)NCC(N)=O [Example 30, Bu-His-(D)Phe-Arg-Trp-Gly-NH2] (Butyryl-H[dF]RWG-NH2) | greater MC1-R agonist activity than MC4-R agonist activity | – |
| CCCCC(=O)NC1(C(=O)N[C@H](Cc2ccccc2)C(=O)N[C@@H](CCCNC(=N)N)C(=O)N[C@@H](Cc2c[nH]c3ccccc23)C(=O)NCC(N)=O)CC=C(c2ccccc2)CC1 (single isomer, unassigned) [Penta-Ape-(D)Phe-Arg-Trp-Gly-NH2] | – | < 500 |
